From ChEMBL document CHEMBL1150003, “Chiral carbocylic nucleosides: The synthesis and antiviral activity of 4-hydroxy and 4-fluorocarbocyclic - 2- deoxyguanosines” (1993)
Converted amounts (≈) assume the structure as drawn.

Key:
Format in all cases: functional
Conditions in all cases: Chlorocebus sabaeus, read-out: ID50 (the source's name)
Vero [1] = assay: Tested for the concentration required to inhibit HSV-1 strain KOS cytopathic effect by 50% in vero cells
Vero [2] = assay: Tested for the concentration required to inhibit HSV-2 strain 186 cytopathic effect by 50% in vero cells
Vero [3] = assay: Tested for the cytotoxic effect in vero cell monolayers after incubation for 48 hr at 37 degree Centigrade

SMILES	IC50 (Vero [1]) [µg/mL]	IC50 (Vero [2]) [µg/mL]	IC50 (Vero [3]) [µg/mL]
Nc1nc2c(ncn2COCCO)c(=O)[nH]1 [ACYCLOVIR]	0.2 (≈ 0.888 µM)	0.6 (≈ 2.66 µM)	> 300
Nc1nc(O)c2ncn([C@H]3C[C@H](O)[C@](O)(CO)C3)c2n1	70 (≈ 249 µM)	65 (≈ 231 µM)	> 300
Nc1nc(O)c2ncn([C@H]3C[C@H](O)[C@@](O)(CO)C3)c2n1	0.15 (≈ 0.533 µM)	0.26 (≈ 0.924 µM)	> 900
Nc1nc(O)c2ncn([C@@H]3C[C@H](CO)[C@@H](O)C3)c2n1	0.06 (≈ 0.226 µM)	0.44 (≈ 1.66 µM)	300 (≈ 1130 µM)
Nc1nc(O)c2ncn(C3CC(O)C(F)(CO)C3)c2n1 (stereo not given)	0.15 (≈ 0.53 µM)	0.36 (≈ 1.27 µM)	100 (≈ 353 µM)
